# Patent publication US20190077774A1, “PEROXISOME PROLIFERATOR-ACTIVATED RECEPTOR AGONISTS” (City of Hope, priority 2017, published 2019)
# Several values for one entry are separate records, joined by “and”; a condition that tells them apart may be missing. Identical values can stand only once.
# Legend:
# mouse PPARα = molecular target: T1, mouse PPARα (Mus musculus, UniProt P23204); test: PPAR-GAL4 transactivation assay in transiently transfected CV-1 cells; type: cell-based; details: PPAR-GAL4 chimeric receptor, read-out: EC50(nM) mPPARα
# T1 construct: expressed in transfected cells; host or cells: CV-1 (monkey kidney) cells, transient transfection
# T1 sequence (P23204 159-468): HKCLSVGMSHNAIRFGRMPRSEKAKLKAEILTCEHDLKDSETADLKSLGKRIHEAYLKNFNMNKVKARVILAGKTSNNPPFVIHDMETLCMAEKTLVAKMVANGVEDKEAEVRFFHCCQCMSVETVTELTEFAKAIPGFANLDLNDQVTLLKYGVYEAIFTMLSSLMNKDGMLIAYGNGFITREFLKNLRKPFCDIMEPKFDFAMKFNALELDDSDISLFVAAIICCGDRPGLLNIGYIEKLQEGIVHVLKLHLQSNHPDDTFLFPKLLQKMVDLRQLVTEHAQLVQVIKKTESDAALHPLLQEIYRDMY
# Method: (§1) To assess the functional transcriptional activity of these compounds, cell-based assays using chimeric receptor Gal4 DNA-binding domain (DBD)-NR ligand binding domain cotransfection assay (LBDs of PPARα, PPARγ, and PPARδ) were performed. As an initial screen to determine the PPARα activity and selectivity, all compounds were evaluated for in vitro potency and selectivity by transfection testing, using CV-1 cells transfected with human and mouse PPARs. MH100×4 is a luciferase reporter with four copies of a GAL4 UASG response element, where GAL-I refers to the ligand-binding domain of the indicated receptor fused to the C-terminus of the GAL4 DNA-binding domain. Assays were performed using a Biomek automated workstation in which the genes for the nuclear receptor, as well as a plasmid containing a response element upstream of a luciferase cDNA, are transfected into CV-1 cells. Compounds were evaluated for their ability to activate human and mouse PPARs at […] test concentrations. […] The transactivation activity of the series of compounds (DY121-132, 10a-g) toward PPARα was expressed as EC50, which is the concentration of the test compound that affords half-maximum activity, as summarized in Table 1.
# (§2) In vitro binding and transfection studies. As an initial screen to determine the PPARα, PPARγ, and PPARδ activity, all compounds were evaluated for in vitro potency and selectivity by transfection testing, using CV-1 cells transfected with human and mouse PPARs. MH100×4 is a luciferase reporter with four copies of a GAL4 USAG response element, where GAL-I refers to the ligand-binding domain of the indicated receptor fused to the C-terminus of the GAL4 DNA-binding domain. Assays were performed using a Biomek automated workstation in which the gene for the nuclear receptor, as well as a plasmid containing a response element upstream of a luciferase cDNA, are transfected into CV-1 cells. Compounds were evaluated for their ability to activate human PPARs at 1, 2.5, 3, and 5 uM test concentrations.
# (§3) Compounds were screened for agonist activity towards PPAR-GAL4 chimeric receptors in transiently transfected CV-1 cells as described. EC50 is the concentration of test compound that gave 50% maximum efficacy.
# human PPARα = molecular target: T2, human PPARα (Homo sapiens, UniProt Q07869); test: as above; type: cell-based
# T2 construct: expressed in transfected cells; host or cells: CV-1 (monkey kidney) cells, transient transfection
# T2 sequence (Q07869 159-468): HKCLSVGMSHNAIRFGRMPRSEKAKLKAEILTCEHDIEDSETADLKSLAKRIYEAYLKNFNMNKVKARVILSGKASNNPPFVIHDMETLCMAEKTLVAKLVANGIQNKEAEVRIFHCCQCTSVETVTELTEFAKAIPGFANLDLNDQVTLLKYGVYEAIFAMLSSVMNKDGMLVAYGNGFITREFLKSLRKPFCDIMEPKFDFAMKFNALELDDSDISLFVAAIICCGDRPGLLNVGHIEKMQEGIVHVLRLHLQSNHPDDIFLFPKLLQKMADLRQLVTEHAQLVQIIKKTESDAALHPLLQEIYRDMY
# Method: as §1
# Cell-based reporter gene assays Cell based transactivation assays were performed in CV 1 cells as described (Forman, et al.). PPARα activity was assayed with a GAL4 reporter construct and fusion proteins containing the ligand binding domains of human PPARα, human PPARγ and human PPARδ linked to the DNA binding domain of yeast GAL4. Reporter constructs (300 ng/10^5 cells) and cytomegalovirus-driven expression vectors (20-50 ng/10^5 cells) were added as indicated along with CMX-b-gal (500 ng/10^5 cells) as an internal control. Cells were transiently transfected by Lipofectamine as described. Cells were incubated with DNA complexed liposomes for 2 h and subsequently treated for approximately 45 h with phenol red free DMEM FBS containing the indicated compounds. After exposure to ligand, the cells were harvested and assayed for luciferase and β-galactosidase activity. All points were assayed in triplicate and varied by less than 15%. Each experiment was repeated three or more times with similar results. Fold activation is reported.
# as §2, §3
compound,measurement,setting,value
"COc1ccc(Cn2c(CCCc3ccc(OC(C)(C)C(=O)O)cc3)nn(Cc3ccc(C)cc3)c2=O)cc1 [10a, 2-(4-{3-[4-(4-Methoxy-benzyl)-1-(4-methyl-benzyl)-5-oxo-4,5-dihydro-1H[1,2,4]triazol-3-yl]-propyl}-phenoxy)-2-methyl-propionic acid]",EC50,mouse PPARα,3 nM
same,fold greater PPARα agonistic activity compared to LY518674,human PPARα,42 fold
same,EC50,"human PPARα; PPAR-GAL4 chimeric receptor, CV-1 cells, read-out: EC50(nM) hPPARα",0.85 nM and 1 nM
same,selectivity over PPARγ and PPARδ,human PPARα; PPAR-GAL4 transactivation assays,excellent selectivity
